Measurements published in BindingDB's records for doi:10.1016/j.bmcl.2009.09.017 (Pfizer, 2009).

Assay: Antagonist activity at P2Y12 receptor in human platelet rich plasma assessed as inhibition of ADP-induced platelet aggregation by light transmission aggregometry

Row | Structure (SMILES) | IC50 [µM]
1 | CCCCOC(=O)N1CCN(C(=O)[C@H](CCC(=O)O)NC(=O)c2cc(OCC3CCNCC3)nc(-c3ccccc3)n2)CC1 [(S)-5-(4-(butoxycarbonyl)piperazin-1-yl)-5-oxo-4-(2-phenyl-6-(piperidin-4-ylmethoxy)pyrimidine-4-carboxamido)pentanoic acid] | 1.2
2 | CCCCOC(=O)N1CCN(C(=O)[C@H](CCC(=O)O)NC(=O)c2cc(OC3CCNCC3)nc(-c3ccccc3)n2)CC1 [(S)-5-(4-(butoxycarbonyl)piperazin-1-yl)-5-oxo-4-(2-phenyl-6-(piperidin-4-yloxy)pyrimidine-4-carboxamido)pentanoic acid] | 1.3
3 | CCCCCOC(=O)N1CCN(C(=O)[C@H](CCC(=O)O)NC(=O)c2cc(N3CCN(CC(=O)N4CCCC4)CC3)nc(-c3ccccc3)n2)CC1 [(S)-5-oxo-4-(6-(4-(2-oxo-2-(pyrrolidin-1-yl)ethyl)piperazin-1-yl)-2-phenylpyrimidine-4-carboxamido)-5-(4-(pentyloxycarbonyl)piperazin-1-yl)pentanoic acid] | 1.1
4 | CCCCCOC(=O)N1CCN(C(=O)[C@H](CCC(=O)O)NC(=O)c2cc(N3CCC(CC(=O)N4CCCC4)CC3)nc(-c3ccccc3)n2)CC1 [(S)-5-oxo-4-(6-(4-(2-oxo-2-(pyrrolidin-1-yl)ethyl)piperidin-1-yl)-2-phenylpyrimidine-4-carboxamido)-5-(4-(pentyloxycarbonyl)piperazin-1-yl)pentanoic acid] | 1.5
5 | CCCCCOC(=O)N1CCN(C(=O)[C@H](CCC(=O)O)NC(=O)c2cc(N3CCC(CN4CCCC4=O)CC3)nc(-c3ccccc3)n2)CC1 [(S)-5-oxo-4-(6-(4-((2-oxopyrrolidin-1-yl)methyl)piperidin-1-yl)-2-phenylpyrimidine-4-carboxamido)-5-(4-(pentyloxycarbonyl)piperazin-1-yl)pentanoic acid] | 1.6
6 | CCCCCOC(=O)N1CCN(C(=O)[C@H](CCC(=O)O)NC(=O)c2cc(SCC(F)(F)F)nc(-c3ccccc3)n2)CC1 [(S)-5-oxo-5-(4-(pentyloxycarbonyl)piperazin-1-yl)-4-(2-phenyl-6-(2,2,2-trifluoroethylthio)pyrimidine-4-carboxamido)pentanoic acid] | > 10
7 | CCCCCOC(=O)N1CCN(C(=O)[C@H](CCC(=O)O)NC(=O)c2cc(N3CCC(CCN4CCCC4)CC3)nc(-c3ccccc3)n2)CC1 [(S)-5-oxo-5-(4-(pentyloxycarbonyl)piperazin-1-yl)-4-(2-phenyl-6-(4-(2-(pyrrolidin-1-yl)ethyl)piperidin-1-yl)pyrimidine-4-carboxamido)pentanoic acid] | 0.81
8 | CCCCCOC(=O)N1CCN(C(=O)[C@H](CCC(=O)O)NC(=O)c2cc(N3CCC(N4CCCC4)CC3)nc(-c3ccccc3)n2)CC1 [(S)-5-oxo-5-(4-(pentyloxycarbonyl)piperazin-1-yl)-4-(2-phenyl-6-(4-(pyrrolidin-1-yl)piperidin-1-yl)pyrimidine-4-carboxamido)pentanoic acid] | 0.51
9 | CCCCCOC(=O)N1CCN(C(=O)[C@H](CCC(=O)O)NC(=O)c2cc(N3CCC(CN4CCCC4)CC3)nc(-c3ccccc3)n2)CC1 [(S)-5-oxo-5-(4-(pentyloxycarbonyl)piperazin-1-yl)-4-(2-phenyl-6-(4-(pyrrolidin-1-ylmethyl)piperidin-1-yl)pyrimidine-4-carboxamido)pentanoic acid] | 0.56
10 | CCCCCOC(=O)N1CCN(C(=O)[C@H](CCC(=O)O)NC(=O)c2cc(N3CCC(C(=O)N4CCCC4)CC3)nc(-c3ccccc3)n2)CC1 [(S)-5-oxo-5-(4-(pentyloxycarbonyl)piperazin-1-yl)-4-(2-phenyl-6-(4-(pyrrolidine-1-carbonyl)piperidin-1-yl)pyrimidine-4-carboxamido)pentanoic acid] | 0.27

Second part, the molecule after the results:

Row | IC50 [µM] | Structure (SMILES)
11 | 1.3 | CCCCCOC(=O)N1CCN(C(=O)[C@H](CCC(=O)O)NC(=O)c2cc(N3CCNCC3)nc(-c3ccccc3)n2)CC1 [(S)-5-oxo-5-(4-(pentyloxycarbonyl)piperazin-1-yl)-4-(2-phenyl-6-(piperazin-1-yl)pyrimidine-4-carboxamido)pentanoic acid]
12 | 1.7 | CCCCCOC(=O)N1CCN(C(=O)[C@H](CCC(=O)O)NC(=O)c2cc(OCC3CCNCC3)nc(-c3ccccc3)n2)CC1 [(S)-5-oxo-5-(4-(pentyloxycarbonyl)piperazin-1-yl)-4-(2-phenyl-6-(piperidin-4-ylmethoxy)pyrimidine-4-carboxamido)pentanoic acid]
13 | 1.7 | CCCCCOC(=O)N1CCN(C(=O)[C@H](CCC(=O)O)NC(=O)c2nc(-c3ccccc3)cc(N3CCC(CCN4CCCC4)CC3)n2)CC1 [(S)-5-oxo-5-(4-(pentyloxycarbonyl)piperazin-1-yl)-4-(4-phenyl-6-(4-(2-(pyrrolidin-1-yl)ethyl)piperidin-1-yl)pyrimidine-2-carboxamido)pentanoic acid]
14 | 2.1 | CCCCCOC(=O)N1CCN(C(=O)[C@H](CCC(=O)O)NC(=O)c2nc(-c3ccccc3)cc(N3CCC(N4CCCC4)CC3)n2)CC1 [(S)-5-oxo-5-(4-(pentyloxycarbonyl)piperazin-1-yl)-4-(4-phenyl-6-(4-(pyrrolidin-1-yl)piperidin-1-yl)pyrimidine-2-carboxamido)pentanoic acid]
15 | 5.2 | CCCCCOC(=O)N1CCN(C(=O)[C@H](CCC(=O)O)NC(=O)c2nc(-c3ccccc3)cc(N3CCNCC3)n2)CC1 [(S)-5-oxo-5-(4-(pentyloxycarbonyl)piperazin-1-yl)-4-(4-phenyl-6-(piperazin-1-yl)pyrimidine-2-carboxamido)pentanoic acid]
16 | 9.4 | CCCCCOC(=O)N1CCN(C(=O)[C@H](CCC(=O)O)NC(=O)c2nc(OCC3CCNCC3)cc(-c3ccccc3)n2)CC1 [(S)-5-oxo-5-(4-(pentyloxycarbonyl)piperazin-1-yl)-4-(4-phenyl-6-(piperidin-4-ylmethoxy)pyrimidine-2-carboxamido)pentanoic acid]
